These results are taken from paper PMC8510344, “Bile-Acid-Appended Triazolyl Aryl Ketones: Design, Synthesis, In Vitro Anticancer Activity and Pharmacokinetics in Rats” (Molecules, 2021).

Data set [1] deals with MCF-7 (human breast adenocarcinoma) cells. Kind of data set: MTT cytotoxicity assay, MCF-7. The class given is cell-based. To be noted: Homo sapiens; for viability at 10 µM: MCF7, 10 µM, 48 h exposure, read-out: % Cell Viability at 10 µM MCF-7. How it is done: (§1) The cytotoxicity activity of all the conjugates (6aa–6df) was evaluated in vitro by MTT assay against two different breast cancer cell lines 4T1 (murine) and MCF-7 (human) and HEK 293 (human) as normal cell line. DTX was used as positive control. Cells were grown in DMEM supplemented with 10% FBS and 1% antibiotic solution and incubated at 5% CO2 and 37 °C for 24 h. The stock solutions of all the conjugates were prepared in DMSO and diluted for further use. Briefly, 5 × 10^3 cells/well were seeded in 96-well cell culture plates and allowed to adhere for 24 h. Cell inhibition (%) was determined after 48 h exposure to the compounds at 1–25 μM concentration. After 48 h, MTT assay was performed and the yellow tetrazolium salt (MTT) was reduced in metabolically active cells to form insoluble purple formazan crystals, which were solubilized by the addition of DMSO. The optical density (OD) was recorded at 560 nm and 630 nm as reference wavelength. Percentage cell inhibition was determined by comparison with untreated cells.

The test system of data set [2] is 4T1 (mouse mammary carcinoma) cells. Nature of the data set: MTT cytotoxicity assay, 4T1. The class given is cell-based. Conditions: Mus musculus; for viability at 10 µM: 48 h exposure, read-out: % Cell Viability at 10 µM 4T1. The method, then: as §1
For orientation: Tetrazolium assays rely on reduction of a dye to a coloured formazan, in cell work by metabolically active cells.

Data set [3] is described as follows: MTT cytotoxicity assay, normal cell line HEK 293. The format is cell-based. To be noted: human, HEK 293 cells, HEK 293 normal cells, 48 h exposure. How it is done: as §1

A word on the viability: it is the share of living cells, or the viability signal relative to a control. Turning to `COc1ccc(C(=O)Cn2cc(CNC(=O)CC[C@@H](C)C3CCC4C5C(C[C@H](O)[C@@]43C)[C@@]3(C)CC[C@@H](O)CC3C[C@H]5O)nn2)cc1` (stereo partly drawn) [6cc, (4R)-N-((1-(2-(4-Methoxyphenyl)-2-oxoethyl)-1H-1,2,3-triazol-4-yl)methyl)-4-((3R,7R,10S,12S,13R)-3,7,12-trihydroxy-10,13-dimethylhexadecahydro-1H-cyclopenta[a]phenanthren-17-yl)pentanamide], the viability at 10 µM in data set [1] worked out at 95.4%; in data set [2], 56.8%. This molecule also yielded a viability at 48 h, 10 µM in data set [3] of 96.8%.

What is called melting point is the temperature of the solid-liquid transition. `C[C@H](CCC(=O)NCc1cn(CC(=O)c2ccccc2)nn1)C1CCC2C3CCC4C[C@H](O)CC[C@]4(C)C3C[C@H](O)[C@@]21C` (stereo partly drawn) [6da, (4R)-4-((3R,10S,12S,13R)-3,12-Dihydroxy-10,13-dimethylhexadecahydro-1H-cyclopenta[a]phenanthren-17-yl)-N-((1-(2-oxo-2-phenylethyl)-1H-1,2,3-triazol-4-yl)methyl)pentanamide] returned a melting point of 135 to 136 °C. Further, in data set [1], the viability at 10 µM stood at 91.2%. For the same molecule, the viability at 10 µM in data set [2] stood at 99.6%. Further, the viability at 48 h, 10 µM in data set [3] worked out at 97.9%.

Consider `Cc1ccc(C(=O)Cn2cc(CNC(=O)CC[C@@H](C)C3CCC4C5CCC6C[C@H](O)CC[C@]6(C)C5C[C@H](O)[C@@]43C)nn2)cc1` (stereo partly drawn) [6db, (4R)-4-((3R,10S,12S,13R)-3,12-Dihydroxy-10,13-dimethylhexadecahydro-1H-cyclopenta[a]phenanthren-17-yl)-N-((1-(2-oxo-2-(p-tolyl)ethyl)-1H-1,2,3-triazol-4-yl)methyl)pentanamide], for which the melting point lay in the range of 112 to 115 °C. For the same molecule, the viability at 10 µM in data set [1] came out at 78.7%. Besides, the viability at 10 µM in data set [2] amounted to 53.7%. In data set [3], this molecule yielded a viability at 48 h, 10 µM of 89.4%.

As for `C[C@H](CCC(=O)OCc1cn(CC(=O)c2ccc(F)cc2)nn1)C1CCC2C3C(C[C@H](O)[C@@]21C)[C@@]1(C)CC[C@@H](O)CC1C[C@H]3O` (stereo partly drawn) [6ad, (1-(2-(4-Fluorophenyl)-2-oxoethyl)-1H-1,2,3-triazol-4-yl)methyl (4R)-4-((3R,7R,10S,12S,13R)-3,7,12-trihydroxy-10,13-dimethylhexadecahydro-1H-cyclopenta[a]phenanthren-17-yl)pentanoate], the melting point was in the range of 152 to 153 °C. The viability at 10 µM in data set [1] came to 66.5%. Moreover, the viability at 10 µM in data set [2] stood at 47.7%. The same molecule showed a viability at 48 h, 10 µM in data set [3] of 86.8%.

For `C[C@H](CCC(=O)NCc1cn(CC(=O)c2ccc(Cl)cc2)nn1)C1CCC2C3CCC4C[C@H](O)CC[C@]4(C)C3C[C@H](O)[C@@]21C` (stereo partly drawn) [6de, (4R)-N-((1-(2-(4-Chlorophenyl)-2-oxoethyl)-1H-1,2,3-triazol-4-yl)methyl)-4-((3R,10S,12S,13R)-3,12-dihydroxy-10,13-dimethylhexadecahydro-1H-cyclopenta[a]phenanthren-17-yl)pentanamide], the melting point lay in the range of 100 to 101 °C. For the same molecule, the viability at 10 µM in data set [1] was determined as 86.8%. Besides, in data set [2], the viability at 10 µM was 62.9%. For the same molecule, the viability at 48 h, 10 µM in data set [3] worked out at 90.5%.

For the molecule `C[C@H](CCC(=O)NCc1cn(CC(=O)c2ccc(F)cc2)nn1)C1CCC2C3C(C[C@H](O)[C@@]21C)[C@@]1(C)CC[C@@H](O)CC1C[C@H]3O` (stereo partly drawn) [6cd, (4R)-N-((1-(2-(4-Fluorophenyl)-2-oxoethyl)-1H-1,2,3-triazol-4-yl)methyl)-4-((3R,7R,10S,12S,13R)-3,7,12-trihydroxy-10,13-dimethylhexadecahydro-1H-cyclopenta[a]phenanthren-17-yl)pentanamide], the melting point is 137 to 138 °C. In data set [1], the viability at 10 µM turned out to be 88.7%. For the same molecule, the viability at 10 µM in data set [2] stood at 70.7%. For the same molecule, the viability at 48 h, 10 µM in data set [3] came out at 97.5%.

Molecule `Cc1ccc(C(=O)Cn2cc(COC(=O)CC[C@@H](C)C3CCC4C5CCC6C[C@H](O)CC[C@]6(C)C5C[C@H](O)[C@@]43C)nn2)cc1` (stereo partly drawn) [6bb, (1-(2-Oxo-2-(p-tolyl)ethyl)-1H-1,2,3-triazol-4-yl)methyl (4R)-4-((3R,10S,12S,13R)-3,12-dihydroxy-10,13-dimethylhexadecahydro-1H-cyclopenta[a]phenanthren-17-yl)pentanoate] registered a melting point of 123 to 125 °C. In addition, the viability at 10 µM in data set [1] stood at 67.6%. Moreover, the viability at 10 µM in data set [2] was determined as 85.7%. This molecule displayed a viability at 48 h, 10 µM in data set [3] of 89.2%.

Turning to `Cc1ccc(C(=O)Cn2cc(COC(=O)CC[C@@H](C)C3CCC4C5C(C[C@H](O)[C@@]43C)[C@@]3(C)CC[C@@H](O)CC3C[C@H]5O)nn2)cc1` (stereo partly drawn) [6ab, (1-(2-Oxo-2-(p-tolyl)ethyl)-1H-1,2,3-triazol-4-yl)methyl (4R)-4-((3R,7R,10S,12S,13R)-3,7,12-trihydroxy-10,13-dimethylhexadecahydro-1H-cyclopenta[a]phenanthren-17-yl)pentanoate], the viability at 10 µM is 57.4% in data set [1] and 72.9% in data set [2]. Also, the viability at 48 h, 10 µM in data set [3] is 87.6%.

In the case of `C[C@H](CCC(=O)OCc1cn(CC(=O)c2ccccc2)nn1)C1CCC2C3C(C[C@H](O)[C@@]21C)[C@@]1(C)CC[C@@H](O)CC1C[C@H]3O` (stereo partly drawn) [6aa, (1-(2-Oxo-2-phenylethyl)-1H-1,2,3-triazol-4-yl)methyl (4R)-4-((3R,7R,10S,12S,13R)-3,7,12-trihydroxy-10,13-dimethylhexadecahydro-1H-cyclopenta[a]phenanthren-17-yl)pentanoate], the melting point lay within 108 to 109 °C. In addition, the viability at 10 µM in data set [1] turned out to be 77.3%. The viability at 10 µM in data set [2] came to 74.3%. The molecule further came in with a viability at 48 h, 10 µM in data set [3] of 86.1%.

`C[C@H](CCC(=O)OCc1cn(CC(=O)c2ccc(Cl)cc2)nn1)C1CCC2C3CCC4C[C@H](O)CC[C@]4(C)C3C[C@H](O)[C@@]21C` (stereo partly drawn) [6be, (1-(2-(4-Chlorophenyl)-2-oxoethyl)-1H-1,2,3-triazol-4-yl)methyl (4R)-4-((3R,10S,12S,13R)-3,12-dihydroxy-10,13-dimethylhexadecahydro-1H-cyclopenta[a]phenanthren-17-yl)pentanoate] gave a melting point of 92 to 93 °C. Besides, the viability at 10 µM in data set [1] was 68.5%. For the same molecule, in data set [2], the viability at 10 µM came to 76%. Moreover, in data set [3], the viability at 48 h, 10 µM was 88.4%.

With `COc1ccc(C(=O)Cn2cc(COC(=O)CC[C@@H](C)C3CCC4C5CCC6C[C@H](O)CC[C@]6(C)C5C[C@H](O)[C@@]43C)nn2)cc1` (stereo partly drawn) [6bc, (1-(2-(4-Methoxyphenyl)-2-oxoethyl)-1H-1,2,3-triazol-4-yl)methyl (4R)-4-((3R,10S,12S,13R)-3,12-dihydroxy-10,13-dimethylhexadecahydro-1H-cyclopenta[a]phenanthren-17-yl)pentanoate], the melting point is 144 to 145 °C. The viability at 10 µM in data set [1] was found to be 69.6%. For the same molecule, the viability at 10 µM in data set [2] stood at 68.4%. Besides, the viability at 48 h, 10 µM in data set [3] was 90.8%.

As usually defined, the IC50 is the concentration that gives 50% inhibition. Lower therefore signals higher potency. For the molecule `CC(=O)O[C@@]12CO[C@@H]1C[C@H](O)[C@@]1(C)C(=O)[C@H](O)C3=C(C)[C@@H](OC(=O)[C@H](O)[C@@H](NC(=O)OC(C)(C)C)c4ccccc4)C[C@@](O)([C@@H](OC(=O)c4ccccc4)[C@H]21)C3(C)C` [DTX, Docetaxel, reference compound], the figures for the viability at 10 µM in data set [1] and in data set [2] were 46.5% and 56.9%, respectively. The IC50 was found to be 9.46 ± 0.98 µM in data set [1] (MCF7, 48 h, 48 h) and 13.8 ± 1.07 µM in data set [2] (48 h).

In turn, `C[C@H](CCC(=O)OCc1cn(CC(=O)c2ccc(Cl)cc2)nn1)C1CCC2C3C(C[C@H](O)[C@@]21C)[C@@]1(C)CC[C@@H](O)CC1C[C@H]3O` (stereo partly drawn) [6ae, (1-(2-(4-Chlorophenyl)-2-oxoethyl)-1H-1,2,3-triazol-4-yl)methyl (4R)-4-((3R,7R,10S,12S,13R)-3,7,12-trihydroxy-10,13-dimethylhexadecahydro-1H-cyclopenta[a]phenanthren-17-yl)pentanoate] showed a melting point of 153 to 154 °C. In addition, the viability at 10 µM in data set [1] worked out at 79.6%. In addition, the viability at 10 µM in data set [2] amounted to 58.9%. Moreover, in data set [3], the viability at 48 h, 10 µM is 96.2%.

The molecule `C[C@H](CCC(=O)NCc1cn(CC(=O)c2ccc(Br)cc2)nn1)C1CCC2C3CCC4C[C@H](O)CC[C@]4(C)C3C[C@H](O)[C@@]21C` (stereo partly drawn) [6df, (4R)-N-((1-(2-(4-Bromophenyl)-2-oxoethyl)-1H-1,2,3-triazol-4-yl)methyl)-4-((3R,10S,12S,13R)-3,12-dihydroxy-10,13-dimethylhexadecahydro-1H-cyclopenta[a]phenanthren-17-yl)pentanamide] displayed a melting point of 135 to 136 °C. Moreover, in data set [1], the viability at 10 µM amounted to 86.5%. Also, in data set [2], the viability at 10 µM stood at 48.4%. In addition, the viability at 48 h, 10 µM in data set [3] is 93.5%.

Molecule `C[C@H](CCC(=O)NCc1cn(CC(=O)c2ccccc2)nn1)C1CCC2C3C(C[C@H](O)[C@@]21C)[C@@]1(C)CC[C@@H](O)CC1C[C@H]3O` (stereo partly drawn) [6ca, (4R)-N-((1-(2-Oxo-2-phenylethyl)-1H-1,2,3-triazol-4-yl)methyl)-4-((3R,7R,10S,12S,13R)-3,7,12-trihydroxy-10,13-dimethylhexadecahydro-1H-cyclopenta[a]phenanthren-17-yl)pentanamide] showed a melting point of 148 to 149 °C. For the same molecule, the viability at 10 µM in data set [1] was found to be 92.1%. Also, the viability at 10 µM in data set [2] came out at 85.2%. For the same molecule, in data set [3], the viability at 48 h, 10 µM is 90.1%.
